Reference: patent US4299820A, “Therapeutic process employing amides of L and DL phenylglycines” (Pfizer Inc., priority 1977, dated 1981)
Square brackets hold non-standard residues; d marks the D form. Peptide text beside a SMILES is read from it. Hpg = N[C@H](C(=O)O)c1ccc(O)cc1

Experiments:
[1] = tested on: diaphragm tissue from fat-fed rats; assay: Pyruvate oxidation by diaphragm tissue from fat-fed rats in vitro (14C from labelled pyruvate into CO2); parameters: species or system rat; conditions: diaphragm tissue from rats fed on a high fat diet
Method: Representative compounds of the formula (II) have been tested for their ability to increase the oxidation of glucose and/or pyruvate as follows:
Diaphragm tissue is obtained from rats fed on a high fat diet similar to `Diet B` described by Zaragoza and Felber [Horm.Metab. Res., 2, 323 (1970)]. Pyruvate oxidation by such tissue is assessed by measurement of the rate of incorporation of carbon-14 from carbon-14-labelled pyruvate into carbon dioxide in vitro, as described by Bringolf [Eur. J. Biochem., 26, 360 (1972)]. The rate of pyruvate oxidation is depressed by 50%-75% compared with that by diaphragm tissue from rats fed on a normal diet. When the compounds of the formula (II) are added to the medium, they are found to stimulate pyruvate oxidation by diaphragm tissue from fat-fed rats in a dose dependent manner.

[2] = tested on: pyruvate dehydrogenase enzyme; assay: Proportion of active form of pyruvate dehydrogenase (PDHa/PDHt) in hearts of fat-fed rats after treatment; type: in vivo; conditions: fat-fed rat heart, after 11/2 hours
Method: The ability of compounds of formula (II) to increase the proportion of the active form of the pyruvate dehydrogenase enzyme has been measured in the following test:
Rats fed on a high fat diet as in the previous test, are treated either with placebo or with the compound of formula (II) by subcutaneous or intravenous injection or by oral administration. After 11/2 hours the rat hearts are removed and homogenized under conditions which minimize changes in the proportion of the pyruvate dehydrogenase enzyme (PDHt) which is present in the active form, as described by Whitehouse and Randle [Biochem. J., 134, 651 (1973)]. The total amount of the enzyme present (PDHt) and the amount which is present in the active form (PDHa) are assessed by a method similar to that described by Taylor et al. [J. Biol. Chem., 248, 73 (1973)]. The fat-feeding process is found to depress the ratio PDHa/PDHt from a normal value of about 0.7 to a value in the range from 0.05 to 0.2. Treatment of fat-fed rats with the compounds of formula (II) either parenterally or orally, increases this ratio in a dose-dependent manner.

Compound	% Stimulation (pyruvate oxidation) ([1]; Concentration 0.25 mM)	PDHa/PDHt ratio, compound ([2]; Dose 1.2 mmoles/kg p.o.)	% Stimulation (pyruvate oxidation) ([1]; Concentration 2 mM)	PDHa/PDHt ratio, compound ([2]; Dose 0.6 mmoles/kg p.o.)	PDHa/PDHt ratio, compound ([2]; Dose 0.6 mmoles/kg s.c.)	PDHa/PDHt ratio, compound ([2]; Dose 1.2 mmoles/kg s.c.)
Br.COC(=O)[C@@H](NC(=O)[C@@H](N)c1ccc(O)cc1)c1ccc(O)cc1 [Example 1, L,L-Methyl N-[2-(4-hydroxyphenyl)glycyl]-2-(4-hydroxyphenyl)glycinate hydrobromide] (H-[Hpg]-[Hpg]-OMe)	23%	1.00				
Br.Br.N[C@H](C(=O)N[C@H](C(=O)O)c1ccc(O)cc1)c1ccc(O)cc1.N[C@H](C(=O)N[C@H](C(=O)O)c1ccc(O)cc1)c1ccc(O)cc1.O [Example 3, L,L-N-[2-(4-hydroxyphenyl)glycyl]-2-(4-hydroxyphenyl)glycine hydrobromide hemihydrate] (H-[Hpg]-[Hpg]-OH)	39%	0.75				
Br.COC(=O)[C@@H](NC(=O)[C@H](C)N)c1ccc(O)cc1 [Example 7, L,L-Methyl N-alanyl-2-(4-hydroxyphenyl)glycinate hydrobromide] (H-Ala-[Hpg]-OMe)			61%			
Br.C[C@H](N)C(=O)N[C@H](C(=O)O)c1ccc(O)cc1 [Example 8, L,L-N-Alanyl-2-(4-hydroxyphenyl)glycine hydrobromide] (H-Ala-[Hpg]-OH)			23%	0.56	0.77	
Br.CC[C@H](C)[C@H](N)C(=O)N[C@H](C(=O)OC)c1ccc(O)cc1.O [Example 9, L,L-Methyl N-isoleucyl-2-(4-hydroxyphenyl)glycinate hydrobromide monohydrate] (H-Ile-[Hpg]-OMe)		0.24	35%			0.48
Br.CC[C@H](C)[C@H](N)C(=O)N[C@H](C(=O)O)c1ccc(O)cc1 [Example 10, L,L-N-isoleucyl-2-(4-hydroxyphenyl)glycine hydrobromide] (H-Ile-[Hpg]-OH)			10%	0.72	0.86	
